Patent publication US5854081A, “Stable expression of human A2B adenosine receptors, and assays employing the same” (The University of Patent Foundation, priority 1996, dated 1998)
Read-outs that look alike come from different tables or passages of the source.

Assays:
A2B receptors = target: T1, A2B receptors (Homo sapiens, UniProt P29275); test: Inhibition of NECA-stimulated cyclic AMP accumulation in A2B transfected HEK-293 cells (Schild analysis); format: cell-based; conditions: read-out: pA2 (antagonism, Schild analysis) (converted)
T1 construct: expressed in transfected cells; host or cells: HEK-293
T1 sequence (P29275 1-332): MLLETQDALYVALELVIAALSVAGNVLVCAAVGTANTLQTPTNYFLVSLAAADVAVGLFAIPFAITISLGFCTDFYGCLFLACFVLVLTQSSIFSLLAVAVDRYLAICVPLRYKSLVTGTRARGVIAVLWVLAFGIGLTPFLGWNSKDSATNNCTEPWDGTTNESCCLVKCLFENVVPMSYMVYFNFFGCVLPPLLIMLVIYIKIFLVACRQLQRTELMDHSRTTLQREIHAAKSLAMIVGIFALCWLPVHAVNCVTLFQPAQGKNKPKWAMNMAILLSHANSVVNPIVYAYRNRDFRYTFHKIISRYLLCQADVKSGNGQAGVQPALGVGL
Source text: The radioligands used to label the A1 and A2A receptors are commonly used and are commercially available. However, there are no reports in the literature of radioligands useful for detecting A2B receptors. […] Based on this observation [^3 H]DPX was custom triiated by NEN.

[1] = target: T2, recombinant human native-A1 adenosine receptor (Homo sapiens, UniProt P30542); test: Competition for radioligand binding, native-A1; set-up: expressed in transfected cells; conditions: competition with 1 nM ^125 I-ABA
T2 sequence (P30542 1-326): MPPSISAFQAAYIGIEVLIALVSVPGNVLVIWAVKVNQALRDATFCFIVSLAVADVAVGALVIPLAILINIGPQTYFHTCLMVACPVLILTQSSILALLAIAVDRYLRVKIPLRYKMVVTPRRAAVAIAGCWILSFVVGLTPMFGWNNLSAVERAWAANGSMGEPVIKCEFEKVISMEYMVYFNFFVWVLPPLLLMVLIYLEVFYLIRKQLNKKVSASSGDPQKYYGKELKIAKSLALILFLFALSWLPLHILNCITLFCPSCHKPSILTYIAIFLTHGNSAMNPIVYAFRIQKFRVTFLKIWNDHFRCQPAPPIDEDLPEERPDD
Experimental: (§1) The experiments were performed in triplicate with 10 μg membrane protein in a total volume of 0.1 mL with 0.5 U/mL adenosine deaminase, with and without 5 mM MgCl2 for agonist and antagonist binding, respectively. […] Bmax and KD were calculated by nonlinear least squares interpolation for single or two-site binding models. K1 values for different compounds were derived from IC50 values. Data from replicate experiments were tabulated as means ± SEM.
(§2) Twelve compounds were evaluated to determine their potencies to compete for radioligand binding to native- and H/F-A1 or A2A receptors.

[2] = test system: untransfected CHO-K1 cells; test: Cyclic AMP levels in untransfected CHO-K1 cells; format: cell-based; conditions: concentrations up to 1 μM
Experimental: (§3) CHO-K1 cells were incubated without or with 100 mg/mL pertussis toxin. […] Five-hundred microliters of the supernatants were removed, acetylated, and assayed for cyclic AMP by automated radioimmunoassay.

[3] = test system: H/F-A1 adenosine receptors; test: Inhibition of cyclic AMP accumulation, CHO-K1 cells with H/F-A1; format: cell-based, human
Experimental: as §3

[4] = target: T3, recombinant human H/F-A1 adenosine receptor (Homo sapiens, UniProt P30542); test: Competition for radioligand binding, H/F-A1; conditions: competition with 1 nM ^125 I-ABA
T3 construct: expressed in transfected cells
T3 sequence (P30542 with tags, fused parts or gaps): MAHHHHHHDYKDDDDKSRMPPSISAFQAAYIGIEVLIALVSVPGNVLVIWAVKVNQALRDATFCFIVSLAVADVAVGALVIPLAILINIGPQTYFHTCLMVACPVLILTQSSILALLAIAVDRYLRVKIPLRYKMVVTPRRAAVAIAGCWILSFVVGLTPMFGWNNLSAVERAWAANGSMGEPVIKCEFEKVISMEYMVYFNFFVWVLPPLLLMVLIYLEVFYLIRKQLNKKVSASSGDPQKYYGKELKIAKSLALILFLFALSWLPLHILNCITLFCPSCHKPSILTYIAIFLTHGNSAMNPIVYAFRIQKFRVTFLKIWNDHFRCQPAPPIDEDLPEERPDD
Experimental: as §1, §2

A3 AR [5] = test: A3 AR selectivity of radioligand; format: binding
Source text: These receptors can be labeled nonselectively by agonist radioligands that also label A1 AR.

[6] = Block of ^125 I-ABA binding to lung membranes
A2B adenosine receptors = target: T4, A2B adenosine receptors (Homo sapiens, UniProt P29275); test: A2B radioligand binding assay; conditions: FIG. 6
T4 construct: made in house
T4 sequence (P29275 1-332): T1 sequence (P29275 1-332)

native A2A receptors = test: Effect of GTPγS on agonist radioligand binding to native A2A; set-up: species or system human; conditions: Sf9 cell membranes
[7] = target: rat striatal A2A receptors; conditions: cited from earlier work
[8] = target: T2, recombinant human native-A1 adenosine receptor; test: Saturation radioligand binding, native-A1 (CHO-K1 membranes)
[9] = target: T3, recombinant human H/F-A1 adenosine receptor; test: Saturation radioligand binding, H/F-A1 (CHO-K1 membranes)
A3 AR [10] = test: Activation of A3 AR; conditions: >μM levels
[11] = target: recombinant human H/F-A2A adenosine receptor (Homo sapiens, UniProt P29274); test: Competition for radioligand binding, H/F-A2A
Sequence of recombinant human H/F-A2A adenosine receptor (P29274 with tags, fused parts or gaps): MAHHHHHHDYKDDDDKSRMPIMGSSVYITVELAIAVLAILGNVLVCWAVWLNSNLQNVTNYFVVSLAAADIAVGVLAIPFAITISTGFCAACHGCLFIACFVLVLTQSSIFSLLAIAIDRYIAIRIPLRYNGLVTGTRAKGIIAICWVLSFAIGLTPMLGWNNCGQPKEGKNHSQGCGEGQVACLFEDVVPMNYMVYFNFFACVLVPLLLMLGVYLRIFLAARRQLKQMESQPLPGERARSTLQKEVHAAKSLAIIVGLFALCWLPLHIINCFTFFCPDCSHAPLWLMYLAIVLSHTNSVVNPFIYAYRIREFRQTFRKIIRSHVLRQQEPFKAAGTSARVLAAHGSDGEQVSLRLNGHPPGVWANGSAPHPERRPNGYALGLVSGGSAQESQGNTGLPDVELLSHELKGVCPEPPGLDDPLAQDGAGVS

[12] = target: recombinant human native-A2A adenosine receptor (Homo sapiens, UniProt P29274); test: Competition for radioligand binding, native-A2A
Sequence of recombinant human native-A2A adenosine receptor (P29274 whole entry): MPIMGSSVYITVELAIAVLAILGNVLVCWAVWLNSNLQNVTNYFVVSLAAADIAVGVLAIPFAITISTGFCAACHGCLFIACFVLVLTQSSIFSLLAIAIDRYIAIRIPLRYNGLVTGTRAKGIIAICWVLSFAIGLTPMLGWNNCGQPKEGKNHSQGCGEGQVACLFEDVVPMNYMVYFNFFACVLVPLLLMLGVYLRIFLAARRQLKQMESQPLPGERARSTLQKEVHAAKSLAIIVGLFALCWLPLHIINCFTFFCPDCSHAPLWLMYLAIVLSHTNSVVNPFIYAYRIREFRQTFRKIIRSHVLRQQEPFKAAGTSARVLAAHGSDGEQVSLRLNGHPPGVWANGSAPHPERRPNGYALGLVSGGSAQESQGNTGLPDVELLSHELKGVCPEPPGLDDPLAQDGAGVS

[13] = ^125 I-ABA: high affinity sites
[14] = competition with 70 nM [^3 H]NECA
[15] = read-out: K1, competition with 70 nM [^3 H]NECA

CCn1c(=O)c2[nH]c(-c3ccccc3)nc2n(CC)c1=O [1,3-diethyl-8-phenylxanthine (DPX), 1,3-diethyl-8-phenylxanthine]
Kb (A2B receptors): 0.03 µM

OC[C@H]1O[C@@H](n2cnc3c(NC4CCCC4)ncnc32)[C@H](O)[C@@H]1O [CPA, N^6 -cyclopentyladenosine]
NH (Hill coefficient) [1]: 0.93 ± 0.16
effect on cyclic AMP levels [2]: no effect
inhibition of cyclic AMP accumulation [3]: potently inhibited
inhibition of cyclic AMP accumulation after pertussis toxin ([3]; preincubated with pertussis toxin): abolished
NH (Hill coefficient) [4]: 0.79

CCNC(=O)[C@H]1O[C@@H](n2cnc3c(N)ncnc32)[C@H](O)[C@@H]1O [NECA, 5'-N-ethylcarboxamidondenosine]
NH (Hill coefficient) [1]: 0.95 ± 0.09
NH (Hill coefficient) [4]: 0.97

CCCn1c(=O)c2[nH]c(-c3ccc(OCC(=O)O)cc3)nc2n(Cc2ccc(N)c([125I])c2)c1=O [^125 I-ABOPX]
selectivity of radioligand (A3 AR [5]): A3 AR-selective

CC(C)N(C)c1nc2c(N[C@@H]3CC4CC3CC4O)ncnc2n1C (stereo partly shown) [WRC-0571]
block of ^125 I-ABA binding to lung membranes ([6]; 1 μM): not blocked

Cn1c(=O)c2[nH]cnc2n(C)c1=O [theophylline]
affinity for A3 AR (rat A3AR): very low affinity
affinity for A3 AR (sheep A3AR): very low affinity

Cn1c(=O)c2[nH]c(-c3ccc(S(=O)(=O)O)cc3)nc2n(C)c1=O [8-SPT, 8-P-sulfophenyltheophylline]
NH (Hill coefficient) [1]: 0.87 ± 0.05
NH (Hill coefficient) [4]: 0.84

CCn1c(=O)c2[nH]c(-c3ccccc3)nc2n(CC)c1=O [[^3 H]DPX]
detection of A2B receptors by radioligand binding (A2B adenosine receptors): first successful detection of A2B adenosine receptors by radioligand binding

Nc1nc2c(ncn2[C@@H]2O[C@H](COP(=O)(O)OP(=O)(O)OP(O)(O)=S)[C@@H](O)[C@H]2O)c(=O)[nH]1 [GTPγS]
reduction of [^3 H]CGS21680 / [^3 H]NECA binding by GTPγS (native A2A receptors): reduced only slightly
reduction in number of high affinity agonist (^125 I-ABA) binding sites by GTPγS (H/F-A1 receptors): large reduction

CCCn1c(=O)c2[nH]c(-c3ccc(OCC(=O)NCCN)cc3)nc2n(CCC)c1=O [XAC, xanthine amino congenen]
NH (Hill coefficient) [1]: 1.12 ± 0.11
NH (Hill coefficient) [4]: 0.96

CCNC(=O)[C@H]1O[C@@H](n2cnc3c(N)nc(NCCc4ccc(CCC(=O)O)cc4)nc32)[C@H](O)[C@@H]1O [[^3 H]CGS21680]
Kd ([7]; G protein coupled rat striatal A2A receptors): 0.0039 µM
Kd ([7]; G protein uncoupled rat striatal A2A receptors): 0.051 µM

CNC(=O)[C@H]1O[C@@H](n2cnc3c(NCc4cccc(I)c4)ncnc32)[C@H](O)[C@@H]1O [IB-MECA]
block of ^125 I-ABA binding to lung membranes ([6]; concentration not given): blocked

Nc1ccc(CNc2ncnc3c2ncn3[C@@H]2O[C@H](CO)[C@@H](O)[C@H]2O)cc1[125I] [^125 I-ABA]
Bmax [8]: 3.5 ± 0.8 pmol/mg protein
Bmax [9]: 3.3 ± 0.5 pmol/mg protein

CCNC(=O)[C@H]1O[C@@H](n2cnc3c(N)nc(NCCc4ccc(CCC(=O)O)cc4)nc32)[C@H](O)[C@@H]1O [CGS21680, 2-(r-(s-carboxyethyl)phen-ethylamino)-5'-N-ethylcarboxamidondenosine]
activation of A3 AR (A3 AR [10]): activate A3 AR

Nc1ccc(CNc2ncnc3c2ncn3[C@@H]2O[C@H](CO)[C@@H](O)[C@H]2O)cc1I [^125 I-ABA]
Kd [8, 13]: 0.102 ± 3e-05 µM
Kd [9, 13]: 0.00098 ± 0.00016 µM

CCCn1c(=O)c2nc(-c3ccc(OCC(=O)O)cc3)[nH]c2n(Cc2ccc(N)c(I)c2)c1=O [1ABOPX, 3-iodoaminobenzyl-1-propyl-8-p-(oxyacetate)-phenylxanthine]
NH (Hill coefficient) [11, 14]: 0.94 ± 0.14
Ki [11, 15]: 0.022 ± 0.0036 µM
NH (Hill coefficient) [12, 14]: 0.84 ± 0.17
Ki [12, 15]: 0.0237 ± 0.0075 µM
